# US4501914A, “2-Hydroxy-3-(o-methoxy-phenoxy)propyl 2-(p-isobutyl-phenyl)-propionate and pharmaceutical compositions containing the same” (priority 1982, dated 1985)
# Tests used:
# [1] = Acute toxicity (Litchfield and Wilcoxon's Method), mouse; details: in vivo, po, per os
# Experimental: (§1) The acute toxicity was tested on various species of animal using Litchfield and Wilcoxon's Method (J. Pharm. Exp. Therap., 96, 99-113 (1949).
# [2] = Acute toxicity (Litchfield and Wilcoxon's Method), rat; details: in vivo, po, per os
# Experimental: as §1
# [3] = Acute toxicity (Litchfield and Wilcoxon's Method), rabbit; details: in vivo, po, per os
# Experimental: as §1
# [4] = tested on: Subplantar oedema induced by carrageenin; experiment: Anti-inflammatory activity - carrageenin oedema; format: in vivo, rats; details: for AREA % Absolute value / AREA % inhibition over controls: times 0-5
# Experimental: The tests were carried out on rats, using a test in which a subplantar oedema was induced by carrageenin.
# AFP 860 and, for comparison, 2-(p-isobutylphenyl)propionic acid (Ibuprofen) were administered orally 30 minutes before the carrageenin at the dosages specified below.
# When the oedema had been induced, the animals in each group were monitored, every 60 minutes for 5 consecutive hours in order to ascertain the development of the inflammatory process.
# [5] = tested on: Pleurisy induced by carrageenin; experiment: Pleurisy induced by carrageenin (Vinegar et al.); format: in vivo, Sprague-Dawley rats; set-up: leukocytes × 1000: unit not given here; details: for % inhib. over control (leukocytes) / % inhib. over control (volume of exudate) / leukocytes × 1000 / Volume (pleural exudate): 100 mg/kg per os; for Volume (pleural exudate): unit assumed
# Experimental: Sprague-Dawley rats of both sexes weighing between 150 and 200 g were used. The animals were divided into "at random" groups and were starved on the previous day with water ad lib.
# The compounds in question were administered orally 30 minutes before the intrapleural injection at an equal dose by weight of 100 mg/kg.
# [6] = tested on: muscle relaxation; experiment: Muscle relaxant activity, metal grille test (Kondziella); format: in vivo; details: mouse, per os, AFP 860 150 mg/kg, mephenesine 100 mg/kg
# Text: Use was made of the method of Kondziella (1964) which consists in suspending the mice from a metal grille and in recording the number of animals which remain suspended for more than 30 seconds. The animals which fall off during this time period are considered to be subject to muscle relaxation.
# A metal grille having a 7 mm mesh and a surface area of 2×2 m disposed horizontally at 1.5 m from the ground was used for this test. The mice were selected on the day preceding the test, rejecting those which fell within 30 seconds. These were then divided into 7 at random groups and starved. AFP 860 and, for comparison purposes, mephenesine both suspended in 1% carboxymethylcellulose were administered per os at dosages of 150 mg/kg in the case of AFP 860 and 100 mg/kg in the case of mephenesine. A third group of mice acting as the control received 1% CMC in equal volumes to those used for the mice treated with the drugs.
# For each mouse the grille suspension tests were carried out 15 and 30 minutes after administration of the drugs in order to enable the evaluation of the time of maximum activity and then every 30 minutes until the muscle relaxant effect had completely disappeared in order to establish the duration of this effect.
# The parameter used for evaluating the results was the percentage of animals subject to muscle relaxation with respect to those treated.
# [7] = tested on: contortions induced by phenylquinone; experiment: Analgesic activity - phenylquinone contortions (Siegmund et al.); format: in vivo, mouse; details: for % inhib. over controls (contortions) / Mean No. of Contortions / No. animals undergoing contortions: 100 mg/kg os
# [8] = tested on: Hyperthermia induced by yeast; experiment: Antipyretic activity - hyperthermia induced by yeast (Boisser et al.); format: in vivo, male rats; details: for Rectal Temperature, 1 h / Rectal Temperature, 2 h / Rectal Temperature, 3 h / Rectal Temperature, 4 h / Rectal Temperature, 5 h / Rectal Temperature, basic / % inhib. over controls (hyperthermia): p.o., Ibuprofen 100 mg/kg, AFP 860 150 mg/kg
# [9] = tested on: bronchosecretogogue activity; experiment: Bronchosecretogogue activity (Mawatari's technique); format: in vivo, Wistar rats; details: for % increase of FlNa (sodium fluorescein) with respect to controls: 500 mg/kg os
# Experimental: Bronchosecretogogue activity was determined in Wistar rats by means of per os administration using the method of Mawatari (Mawatari H., Kagoshima Daiagaku Igaku-Zasshi, 27, 561 (1976), and comparing AFP 860 and guaiaphenesine at the dosages given below. The results are shown in Table 8.
# [10] = tested on: bronchial secretion; experiment: Mucosecretolytic activity (technique of Giraldez et al.); format: in vivo, male rabbits; details: for % increase of bronchial secretion over controls: 500 mg/kg os
# Experimental: Mucosecretolytic action was tested on male rabbits using the technique of Giraldez, Grass and Bruseghini (Abstr.Comp.Int.Pharm. N. 1086--Paris 1978) by means of oral administration and comparing AFP 860 with guaiaphenesine at the dosages given below.
# [11] = Pharmacokinetics, Ibuprofen plasma levels; format: in vivo, Charles River albino rats
# [12] = Pulmonary tropism, Ibuprofen lung/plasma concentration ratio; format: in vivo, Charles River albino rats; details: rat
# [13] = tested on: gastric mucosa; experiment: Gastrolesive action; details: for Mean dimensions (mm) Ulcers: 5 hours and 30 minutes after treatment, os, Ibuprofen 100 mg/kg, AFP 860 150 mg/kg
# [14] = background statement; cited from earlier work
# [15] = per os, Ibuprofen 100 mg/kg, AFP 860 150 mg/kg
structure (smiles),measurement,setting,value
"COc1ccccc1OCC(O)COC(=O)C(C)c1ccc(CC(C)C)cc1 (stereo not shown) [AFP 860, 2-hydroxy-3-(o-methoxyphenoxy)propyl 2-(p-isobutyl-phenyl)-propionate]",LD50,[1],1850 mg/kg
same,LD50,[2],2510 mg/kg
same,LD50,[3],3300 mg/kg
same,anti-inflammatory activity (in words),"[4]; carrageenin oedema, compared with Ibuprofen",excellent anti-inflammatory activity which is comparable to that of Ibuprofen
same,"Mean paw volume during treatment, time 0","[4]; time 0, per os, Ibuprofen 100 mg/kg, AFP 860 150 mg/kg",22.1
same,"Mean paw volume during treatment, time 1","[4]; time 1 (every 60 minutes), per os, Ibuprofen 100 mg/kg, AFP 860 150 mg/kg",27.1
same,"Mean paw volume during treatment, time 2","[4]; time 2 (every 60 minutes), per os, Ibuprofen 100 mg/kg, AFP 860 150 mg/kg",30.2
same,"Mean paw volume during treatment, time 3","[4]; time 3 (every 60 minutes), per os, Ibuprofen 100 mg/kg, AFP 860 150 mg/kg",31.6
same,"Mean paw volume during treatment, time 4","[4]; time 4 (every 60 minutes), per os, Ibuprofen 100 mg/kg, AFP 860 150 mg/kg",32.2
same,"Mean paw volume during treatment, time 5","[4]; time 5 (every 60 minutes), per os, Ibuprofen 100 mg/kg, AFP 860 150 mg/kg",34.7
same,AREA % Absolute value,[4]; [15],176.5
same,AREA % inhibition over controls,[4]; [15],43.2%
same,% inhib. over control (leukocytes),[5]; 5 hours,70.75%
same,% inhib. over control (volume of exudate),[5]; 5 hours,43.18%
same,leukocytes × 1000,[5]; 5 hours,"5,130 × 1000"
same,Volume (pleural exudate),[5]; 5 hours,0.54 mL
same,% inhib. over control (leukocytes),[5]; 24 hours,60.75%
same,% inhib. over control (volume of exudate),[5]; 24 hours,48.19%
same,leukocytes × 1000,[5]; 24 hours,"7,190 × 1000"
same,Volume (pleural exudate),[5]; 24 hours,0.43 mL
same,protective action (in words),"[5]; after 24 hours, compared with Ibuprofen",much greater than that of Ibuprofen
same,anti-inflammatory activity (in words),"[5]; pleurisy, equal doses by weight, compared with the comparison drug (Ibuprofen)",greater in absolute terms and of longer duration
same,% animals subject to muscle relaxation,[6],60%
same,analgesic activity (in words),"[7]; 100 mg/kg orally, compared with Ibuprofen at equal dosage by weight",slightly inferior to that of Ibuprofen
same,% inhib. over controls (contortions),[7],70.45%
same,Mean No. of Contortions,[7],3.9 ± 1.4
same,No. animals undergoing contortions,[7],2/10
same,"Rectal Temperature, 1 h",[8],37.7 °C
same,"Rectal Temperature, 2 h",[8],37.7 °C
same,"Rectal Temperature, 3 h",[8],37.5 °C
same,"Rectal Temperature, 4 h",[8],37.3 °C
same,"Rectal Temperature, 5 h",[8],37.2 °C
same,"Rectal Temperature, basic",[8],38.4 °C
same,antipyretic activity (in words),[8]; compared with Ibuprofen,"very good antipyretic activity, which is in practice the same as that of Ibuprofen"
same,% inhib. over controls (hyperthermia),[8],127.0%
same,% increase of FlNa (sodium fluorescein) with respect to controls,[9],24.5%
same,bronchosecretogogue effect (in words),"[9]; compared with guaiaphenesine, equal doses by weight",considerable effect as a bronchosecretogogue which may in practice be considered superimposable to that of guaiaphenesine
same,% increase of bronchial secretion over controls,[10],32.7%
same,secretolytic activity (in words),[10]; compared with guaiaphenesine at the same dosages by weight,remarkable secretolytic activity which is comparable with that of guaiaphenesine
same,Ibuprofen plasma levels (in words),"[11]; end of first hour to sixth hour, AFP 860 versus Ibuprofen per se",higher after the administration of AFP 860 than after the administration of Ibuprofen per se
same,latency and bio-availability (in words),[11]; with respect to Ibuprofen and guaiaphenesine,greater degree of latency and an improved bio-availability both with respect to Ibuprofen and guaiaphenesine
same,pulmonary tropism (in words),[12]; in vivo,marked pulmonary tropism
same,Mean dimensions (mm) Ulcers,[13],0.8 ± 0.3 mm
same,gastrolesivity (in words),[13]; compared with Ibuprofen,much lower than the Ibuprofen
"COc1ccccc1OCC(O)CO (stereo not shown) [Guaiaphenesine, 3-(o-methoxyphenoxy)-1,2-propandiol, reference compound]",% increase of FlNa (sodium fluorescein) with respect to controls,[9],20.3%
same,% increase of bronchial secretion over controls,[10],34.4%
"CC(C)Cc1ccc(C(C)C(=O)O)cc1 (stereo not shown) [Ibuprofen, 2-(p-isobutylphenyl)propionic acid, reference compound]",AREA % Absolute value,[4]; [15],184.0
same,AREA % inhibition over controls,[4]; [15],40.8%
same,% inhib. over control (leukocytes),[5]; 5 hours,69.32%
same,leukocytes × 1000,[5]; 5 hours,"5,380 × 1000"
same,% inhib. over control (leukocytes),[5]; 24 hours,7.47%
same,leukocytes × 1000,[5]; 24 hours,"16,950 × 1000"
same,% inhib. over controls (contortions),[7],82.26%
same,Mean No. of Contortions,[7],1.8 ± 0.6
same,No. animals undergoing contortions,[7],1/10
same,"Rectal Temperature, 1 h",[8],38.0 °C
same,"Rectal Temperature, 2 h",[8],37.7 °C
same,"Rectal Temperature, 3 h",[8],37.3 °C
same,"Rectal Temperature, 4 h",[8],37.5 °C
same,"Rectal Temperature, 5 h",[8],37.4 °C
same,"Rectal Temperature, basic",[8],38.8 °C
same,% inhib. over controls (hyperthermia),[8],119.0%
same,Tmax,"[11]; rat, plasma, po, after Ibuprofen 27 mg/kg per os, read-out: time of Ibuprofen peak in plasma (converted)",30 min
same,Cmax,"[11]; rat, plasma, po, per os, equimolar: Ibuprofen 27 mg/kg, AFP 860 50 mg/kg, read-out: Ibuprofen peak plasma level",24000 ng/mL
same,AUC,"[11]; rat, plasma, po, per os, equimolar: Ibuprofen 27 mg/kg, AFP 860 50 mg/kg, read-out: area under the plasma level curve (AUC) for Ibuprofen",49000 ng·h/mL
same,Kp at 0.5 h,"[12]; lung, po, 30 mins, per os, Ibuprofen 27 mg/kg, AFP 860 50 mg/kg, read-out: Ibuprofen concentration ratio between lung and plasma",0.2
same,Kp at 1 h,"[12]; lung, po, 1 hour, per os, Ibuprofen 27 mg/kg, AFP 860 50 mg/kg, read-out: Ibuprofen concentration ratio between lung and plasma",0.3
same,gastric lesions (in words),[14],considerable gastric lesions
same,Mean dimensions (mm) Ulcers,[13],8.7 ± 1.4 mm
"Cc1ccccc1OCC(O)CO (stereo not shown) [Mephenesine, reference compound]",% animals subject to muscle relaxation,[6],60%
